Converted amounts (≈) assume the structure as drawn.

Holding throughout (assay type): functional
Assay [1] relates to Candida albicans. Description: Antimicrobial activity against Candida albicans NCIM 3102 assessed as growth inhibition by agar streak dilution method.
Assay [2] deals with Aspergillus flavus. Description: Antimicrobial activity against Aspergillus flavus NCIM 524 assessed as diameter of growth inhibition zone at 10 ug/disk after 48 hr by paper disk diffusion method. To be noted: NCIM 524, 48 h, read-out: DIZ.
For assay [3], the system named is Candida albicans. Description: Antimicrobial activity against Candida albicans NCIM 3102 assessed as diameter of growth inhibition zone at 10 ug/disk after 48 hr by paper disk diffusion method. To be noted: NCIM 3102, 48 h, read-out: DIZ.
Assay [4] deals with Aspergillus flavus. In words: Antimicrobial activity against Aspergillus flavus NCIM 524 assessed as growth inhibition by agar streak dilution method.
Assay [5] deals with Staphylococcus aureus. In words: Antimicrobial activity against Staphylococcus aureus NCIM 5021 assessed as diameter of growth inhibition zone at 100 ug/ml after 24 hr by paper disk diffusion method. The note with it: NCIM 5021, 24 h, read-out: DIZ. On the technique in general: A growth-free zone around the sample is the usual read-out of agar diffusion tests.
Assay [6] deals with Bacillus subtilis. Description: Antimicrobial activity against Bacillus subtilis NCIM 2999 assessed as growth inhibition by agar streak dilution method.
Assay [7] concerns Pseudomonas aeruginosa. Description: Antimicrobial activity against Pseudomonas aeruginosa NCIM 5029 assessed as growth inhibition by agar streak dilution method.
Assay [8] can be described thus: Antioxidant activity assessed as inhibition of xanthine-xanthine oxidase generated superoxide anion radical-mediated NBT reduction by spectrophotometric analysis.
Assay [9] has as its system Escherichia coli. Description: Antimicrobial activity against Escherichia coli NCIM 2574 assessed as diameter of growth inhibition zone at 100 ug/ml after 24 hr by paper disk diffusion method. The note with it: NCIM 2574, 24 h, read-out: DIZ.
Assay [10] has as its system Bacillus subtilis. In words: Antimicrobial activity against Bacillus subtilis NCIM 2999 assessed as diameter of growth inhibition zone at 100 ug/ml after 24 hr by paper disk diffusion method. The note with it: NCIM 2999, 24 h, read-out: DIZ.
Assay [11] has as its system Aspergillus flavus. Description: Antimicrobial activity against Aspergillus flavus NCIM 524 assessed as diameter of growth inhibition zone at 100 ug/ml after 48 hr by paper disk diffusion method. The note with it: NCIM 524, 48 h, read-out: DIZ.
The subject of assay [12] is Pseudomonas aeruginosa. Description: Antimicrobial activity against Pseudomonas aeruginosa NCIM 5029 assessed as diameter of growth inhibition zone at 100 ug/ml after 24 hr by paper disk diffusion method. To be noted: NCIM 5029, 24 h, read-out: DIZ.
The test system of assay [13] is Radical scavenging activity. Description: Antioxidant activity assessed as DPPH radical scavenging activity by visible spectrophotometric analysis.
In assay [14] the test system is Staphylococcus aureus. Description: Antimicrobial activity against Staphylococcus aureus NCIM 5021 assessed as growth inhibition by agar streak dilution method.
The test system of assay [15] is Candida albicans. Description: Antimicrobial activity against Candida albicans NCIM 3102 assessed as diameter of growth inhibition zone at 100 ug/ml after 48 hr by paper disk diffusion method. To be noted: NCIM 3102, 48 h, read-out: DIZ.
A short description of assay [16]: Antioxidant activity assessed as inhibition of Fe3+/ascorbic acid-induced hydroxyl radical production-mediated 2-deoxyribose degradation after 1 hr.
The nature of assay [17]: Antioxidant activity assessed as inhibition of NO radical production from sodium nitroprusside after 150 min by Griess reagent analysis.
The test system of assay [18] is Escherichia coli. Description: Antimicrobial activity against Escherichia coli NCIM 2574 assessed as growth inhibition by agar streak dilution method.
In assay [19] the test system is Staphylococcus aureus. In words: Antimicrobial activity against Staphylococcus aureus NCIM 5021 assessed as diameter of growth inhibition zone at 10 ug/disk after 24 hr by paper disk diffusion method. To be noted: NCIM 5021, 24 h, read-out: DIZ.
Assay [20] concerns Escherichia coli. In words: Antimicrobial activity against Escherichia coli NCIM 2574 assessed as diameter of growth inhibition zone at 10 ug/disk after 24 hr by paper disk diffusion method. The note with it: NCIM 2574, 24 h, read-out: DIZ.
Assay [21] has as its system Bacillus subtilis. In words: Antimicrobial activity against Bacillus subtilis NCIM 2999 assessed as diameter of growth inhibition zone at 10 ug/disk after 24 hr by paper disk diffusion method. To be noted: NCIM 2999, 24 h, read-out: DIZ.
The subject of assay [22] is Pseudomonas aeruginosa. In words: Antimicrobial activity against Pseudomonas aeruginosa NCIM 5029 assessed as diameter of growth inhibition zone at 10 ug/disk after 24 hr by paper disk diffusion method. To be noted: NCIM 5029, 24 h, read-out: DIZ.

Regarding `OC(Cn1cncn1)(Cn1cncn1)c1ccc(F)cc1F` [FLUCONAZOLE], the MIC in the assay with Candida albicans [1] and in the assay on Aspergillus flavus [4] was 5 µg/mL (≈ 16.3 µM) each time. In addition, the zone of inhibition at 10 µg/disc was 19 mm in the assay with Aspergillus flavus [2] and 16 mm in the assay with Candida albicans [3].
For `NC(CCC(=O)n1c(-c2ccc(Cl)cc2)nc2ccccc2c1=O)C(=O)O` (stereo not drawn), the zone of inhibition at 100 µg/mL turned out to be 13 mm in the assay on Staphylococcus aureus [5]; 11.5 mm in the assay with Escherichia coli [9]; 12.7 mm with Bacillus subtilis [10]; 12.1 mm in the assay with Aspergillus flavus [11]; 12 mm with Pseudomonas aeruginosa [12]; 13.6 mm in the assay with Candida albicans [15]. Further, the MIC (in general, the lowest concentration found to suppress growth) with Bacillus subtilis [6] was 11.2 µg/mL (≈ 29 µM); with Candida albicans [1] it was 12 µg/mL (≈ 31.1 µM); in the assay on Pseudomonas aeruginosa [7], 15 µg/mL (≈ 38.9 µM); with Staphylococcus aureus [14] it was 10 µg/mL (≈ 25.9 µM); in the assay on Aspergillus flavus [4] it was 15 µg/mL (≈ 38.9 µM); in the assay on Escherichia coli [18], 15 µg/mL (≈ 38.9 µM). The IC50 (commonly the point on the concentration scale where inhibition reaches its midpoint) stood at 41.8 µg/mL (≈ 108 µM) in assay [8], 37.1 µg/mL (≈ 96.2 µM) in assay [13], 49 µg/mL (≈ 127 µM) in [16] and 41.8 µg/mL (≈ 108 µM) in [17].
For `CN[C@@H]1[C@H](O[C@H]2[C@H](O[C@H]3[C@H](O)[C@@H](O)[C@H](N=C(N)N)[C@@H](O)[C@@H]3N=C(N)N)O[C@@H](C)[C@]2(O)C=O)O[C@@H](CO)[C@H](O)[C@H]1O` [STREPTOMYCIN], the zone of inhibition at 10 µg/disc came out at 14.1 mm in the assay with Staphylococcus aureus [19], 16.5 mm in the assay with Escherichia coli [20], 13.4 mm in the assay on Bacillus subtilis [21] and 14 mm in the assay with Pseudomonas aeruginosa [22]. Besides, the MIC in the assay with Bacillus subtilis [6], in the assay with Pseudomonas aeruginosa [7], with Staphylococcus aureus [14] and with Escherichia coli [18] was 5 µg/mL (≈ 8.6 µM) throughout.

The values above are taken from ChEMBL document CHEMBL3044707, “Synthesis of some new glutamine linked 2,3-disubstituted quinazolinone derivatives as potent antimicrobial and antioxidant agents” (Med Chem Res, 2013).
